Laboratory results: ChEMBL document CHEMBL3046907, “Microwave-assisted synthesis of pyrido[1,2-a]benzimidazole derivatives of -aryloxyquinoline and their antimicrobial and antituberculosis activities” (2013)
In brackets after ≈: the same amount, converted by molar mass.

Legend:
Type in all cases: functional
[1] = test system: Bacillus subtilis; experiment: Antibacterial activity against Bacillus subtilis MTCC 441 after overnight incubation by broth microdilution method
[2] = test system: Mycobacterium tuberculosis; experiment: Growth inhibition of Mycobacterium tuberculosis H37Rv at 6.25 ug/ml after 28 days by Lowenstein-Jensen method; conditions: 672 h, read-out: GI
[3] = test system: Escherichia coli; experiment: Antibacterial activity against Escherichia coli MTCC 443 after overnight incubation by broth microdilution method
[4] = test system: Salmonella typhi; experiment: Antibacterial activity against Salmonella enterica subsp. enterica serovar Typhi MTCC 98 after overnight incubation by broth microdilution method
[5] = test system: Candida albicans; experiment: Antifungal activity against Candida albicans MTCC 227 after overnight incubation by broth microdilution method
[6] = test system: Aspergillus fumigatus; experiment: Antifungal activity against Aspergillus fumigatus MTCC 3008 after overnight incubation by broth microdilution method
[7] = test system: Streptococcus pneumoniae; experiment: Antibacterial activity against Streptococcus pneumoniae MTCC 1936 after overnight incubation by broth microdilution method
[8] = test system: Vibrio cholerae; experiment: Antibacterial activity against Vibrio cholerae MTCC 3906 after overnight incubation by broth microdilution method
[9] = test system: Clostridium tetani; experiment: Antibacterial activity against Clostridium tetani MTCC 449 after overnight incubation by broth microdilution method

SMILES	MIC99 [1] [µg/mL]	inhibition of growth at 6.25 µg/mL [2] [%]	MIC99 [3] [µg/mL]	MIC99 [4] [µg/mL]	MIC99 [5] [µg/mL]	MIC99 [6] [µg/mL]	MIC99 [7] [µg/mL]	MIC99 [8] [µg/mL]	MIC99 [9] [µg/mL]
Cc1ccc(Oc2nc3ccccc3cc2-c2c(C#N)c(N)n3c(nc4cc(C)ccc43)c2C#N)cc1	250 (≈ 520 µM)	12	62.5 (≈ 130 µM)	200 (≈ 416 µM)	500 (≈ 1040 µM)	1000 (≈ 2080 µM)	200 (≈ 416 µM)	200 (≈ 416 µM)	62.5 (≈ 130 µM)
COc1ccc2nc(Oc3ccc(C)cc3)c(-c3c(C#N)c(N)n4c(nc5cc(C)ccc54)c3C#N)cc2c1	125 (≈ 245 µM)	10	200 (≈ 392 µM)	100 (≈ 196 µM)	1000 (≈ 1960 µM)	> 1000	100 (≈ 196 µM)	125 (≈ 245 µM)	200 (≈ 392 µM)
COc1ccc(Oc2nc3ccc(OC)cc3cc2-c2c(C#N)c(N)n3c(nc4cc(C)ccc43)c2C#N)cc1	100 (≈ 190 µM)	70	200 (≈ 380 µM)	250 (≈ 475 µM)	500 (≈ 950 µM)	> 1000	200 (≈ 380 µM)	125 (≈ 237 µM)	200 (≈ 380 µM)
Cc1ccc(Oc2nc3ccccc3cc2-c2c(C#N)c(N)n3c(nc4ccccc43)c2C#N)cc1	250 (≈ 536 µM)	52	100 (≈ 214 µM)	100 (≈ 214 µM)	> 1000	250 (≈ 536 µM)	125 (≈ 268 µM)	100 (≈ 214 µM)	250 (≈ 536 µM)
COc1ccc(Oc2nc3ccccc3cc2-c2c(C#N)c(N)n3c(nc4ccccc43)c2C#N)cc1	250 (≈ 518 µM)	24	125 (≈ 259 µM)	200 (≈ 415 µM)	250 (≈ 518 µM)	500 (≈ 1040 µM)	200 (≈ 415 µM)	125 (≈ 259 µM)	250 (≈ 518 µM)
N#Cc1c(-c2cc3ccccc3nc2Oc2ccc(F)cc2)c(C#N)c2nc3ccccc3n2c1N	250 (≈ 531 µM)	75	200 (≈ 425 µM)	250 (≈ 531 µM)	500 (≈ 1060 µM)	500 (≈ 1060 µM)	125 (≈ 266 µM)	250 (≈ 531 µM)	200 (≈ 425 µM)
Cc1ccc2nc(Oc3ccccc3)c(-c3c(C#N)c(N)n4c(nc5ccccc54)c3C#N)cc2c1	200 (≈ 429 µM)	19	62.5 (≈ 134 µM)	100 (≈ 214 µM)	250 (≈ 536 µM)	1000 (≈ 2140 µM)	200 (≈ 429 µM)	200 (≈ 429 µM)	250 (≈ 536 µM)
Cc1ccc(Oc2nc3ccc(C)cc3cc2-c2c(C#N)c(N)n3c(nc4ccccc43)c2C#N)cc1	100 (≈ 208 µM)	32	100 (≈ 208 µM)	125 (≈ 260 µM)	1000 (≈ 2080 µM)	> 1000	250 (≈ 520 µM)	100 (≈ 208 µM)	500 (≈ 1040 µM)
COc1ccc(Oc2nc3ccc(C)cc3cc2-c2c(C#N)c(N)n3c(nc4ccccc43)c2C#N)cc1	125 (≈ 252 µM)	62	250 (≈ 503 µM)	200 (≈ 403 µM)	1000 (≈ 2010 µM)	> 1000	100 (≈ 201 µM)	200 (≈ 403 µM)	500 (≈ 1010 µM)
COc1ccc2nc(Oc3ccccc3)c(-c3c(C#N)c(N)n4c(nc5ccccc54)c3C#N)cc2c1	250 (≈ 518 µM)	46	250 (≈ 518 µM)	200 (≈ 415 µM)	500 (≈ 1040 µM)	1000 (≈ 2070 µM)	250 (≈ 518 µM)	200 (≈ 415 µM)	100 (≈ 207 µM)
COc1ccc2nc(Oc3ccc(C)cc3)c(-c3c(C#N)c(N)n4c(nc5ccccc54)c3C#N)cc2c1	200 (≈ 403 µM)	58	125 (≈ 252 µM)	250 (≈ 503 µM)	500 (≈ 1010 µM)	> 1000	500 (≈ 1010 µM)	250 (≈ 503 µM)	125 (≈ 252 µM)
COc1ccc(Oc2nc3ccc(OC)cc3cc2-c2c(C#N)c(N)n3c(nc4ccccc43)c2C#N)cc1	250 (≈ 488 µM)	79	125 (≈ 244 µM)	200 (≈ 390 µM)	> 1000	250 (≈ 488 µM)	500 (≈ 976 µM)	125 (≈ 244 µM)	200 (≈ 390 µM)
COc1ccc2nc(Oc3ccc(F)cc3)c(-c3c(C#N)c(N)n4c(nc5ccccc54)c3C#N)cc2c1	200 (≈ 400 µM)	86	200 (≈ 400 µM)	500 (≈ 999 µM)	> 1000	500 (≈ 999 µM)	500 (≈ 999 µM)	200 (≈ 400 µM)	200 (≈ 400 µM)
Cc1ccc2c(c1)nc1c(C#N)c(-c3cc4ccccc4nc3Oc3ccccc3)c(C#N)c(N)n12	200 (≈ 429 µM)	49	100 (≈ 214 µM)	200 (≈ 429 µM)	500 (≈ 1070 µM)	500 (≈ 1070 µM)	250 (≈ 536 µM)	500 (≈ 1070 µM)	250 (≈ 536 µM)
COc1ccc(Oc2nc3ccccc3cc2-c2c(C#N)c(N)n3c(nc4cc(C)ccc43)c2C#N)cc1	250 (≈ 503 µM)	64	100 (≈ 201 µM)	125 (≈ 252 µM)	200 (≈ 403 µM)	1000 (≈ 2010 µM)	250 (≈ 503 µM)	250 (≈ 503 µM)	200 (≈ 403 µM)
Cc1ccc2nc(Oc3ccccc3)c(-c3c(C#N)c(N)n4c(nc5cc(C)ccc54)c3C#N)cc2c1	500 (≈ 1040 µM)	71	250 (≈ 520 µM)	250 (≈ 520 µM)	500 (≈ 1040 µM)	> 1000	100 (≈ 208 µM)	200 (≈ 416 µM)	250 (≈ 520 µM)
Cc1ccc(Oc2nc3ccc(C)cc3cc2-c2c(C#N)c(N)n3c(nc4cc(C)ccc43)c2C#N)cc1	200 (≈ 404 µM)	58	200 (≈ 404 µM)	250 (≈ 506 µM)	500 (≈ 1010 µM)	500 (≈ 1010 µM)	250 (≈ 506 µM)	125 (≈ 253 µM)	125 (≈ 253 µM)
COc1ccc(Oc2nc3ccc(C)cc3cc2-c2c(C#N)c(N)n3c(nc4cc(C)ccc43)c2C#N)cc1	125 (≈ 245 µM)	25	250 (≈ 490 µM)	250 (≈ 490 µM)	1000 (≈ 1960 µM)	> 1000	125 (≈ 245 µM)	200 (≈ 392 µM)	100 (≈ 196 µM)
COc1ccc2nc(Oc3ccccc3)c(-c3c(C#N)c(N)n4c(nc5cc(C)ccc54)c3C#N)cc2c1	250 (≈ 503 µM)	78	62.5 (≈ 126 µM)	100 (≈ 201 µM)	1000 (≈ 2010 µM)	500 (≈ 1010 µM)	250 (≈ 503 µM)	250 (≈ 503 µM)	250 (≈ 503 µM)
CC1(C)S[C@@H]2[C@H](NC(=O)[C@H](N)c3ccccc3)C(=O)N2[C@H]1C(=O)O [AMPICILLIN]	250 (≈ 715 µM)		100 (≈ 286 µM)	100 (≈ 286 µM)			100 (≈ 286 µM)	100 (≈ 286 µM)	250 (≈ 715 µM)
O=C(O)c1cn(C2CC2)c2cc(N3CCNCC3)c(F)cc2c1=O [CIPROFLOXACIN]	50 (≈ 151 µM)		25 (≈ 75.4 µM)	25 (≈ 75.4 µM)			50 (≈ 151 µM)	25 (≈ 75.4 µM)	
COC1=CC(=O)C[C@@H](C)[C@]12Oc1c(Cl)c(OC)cc(OC)c1C2=O [GRISEOFULVIN]					500 (≈ 1420 µM)	100 (≈ 283 µM)			
CCn1cc(C(=O)O)c(=O)c2cc(F)c(N3CCNCC3)cc21 [NORFLOXACIN]	100 (≈ 313 µM)		10 (≈ 31.3 µM)	10 (≈ 31.3 µM)			10 (≈ 31.3 µM)	10 (≈ 31.3 µM)	50 (≈ 157 µM)
